Data published in US20110034472A1, “Novel Compounds for Treatment of Cancer and Disorders Associated With Angiogenesis Function” (UNIVERSITY OF SOUTHERN CALIFORNIA, priority 2004, published 2011).

System: T24 bladder cancer cell lines
Experiment: StaRT-PCR gene expression, SC23
Type: cell-based, human
Experimental: FIG. 21 illustrates RT-PCR gene expression analysis. Total RNA form T24 cells was isolated and cDNA was synthesized with 2.5 ug of total RNA. Standardized RT-PCR was performed with GENE system I gene expression kit (Gene Express Inc.). Each kit contains a mixture of the internal competitive templates and the corresponding primers.
Total RNA form T24 cells were isolated after 3h, Oh, 12h, 24h, and 48h exposure to SC23.
StaRT-PCR™ (Standardized Reverse Transcription Polymerase Chain Reaction). First described by Willey et al. ((2004) Methods Mol. Biol. 258:13-41), this technique uses standardized mixtures of competitive templates (CT) as internal standards in generating valid and reproducible numerical gene expression data for multiple genes. After the mRNA was converted to cDNA, the cDNA was mixed with a proprietary Standardized Mixture of Internal Standards™ (SMIS™, GeneExpress, Inc.). In the standard mixture, there is an internal standard CT for each gene to be measured as well as one for a reference gene. (i.e., β-actin, GAPDH). The amplicons produced by StaRT-PCR™ was then separated on capillary electrophoresis. The amount of internal standard CT or NT amplimer was determined by measuring each peak area. All data were then reported as number of molecules of mRNA for gene of interest per 10^6 molecules of reference gene (normalizer gene). Serial dilutions of the SMIS™ allow quantitative measurements over 7 log range of gene expression observed in cells from <10 to 10^7 molecules/10^6 molecules reference gene. Data presented in Table 8 are number of copies that have been normalized against 10^6 molecule of β-actin.

O=C(NNC(O)c1cc2ccccc2cc1O)c1cc2ccccc2cc1O (stereo not shown) [SC23]
BCL2L1 expression (3 hours): 9449.42 molecules/10^6 β-actin
BCL2 expression (3 hours): 152.37 molecules/10^6 β-actin
CASP1 expression (3 hours): 68.36 molecules/10^6 β-actin
CCNA2 expression (3 hours): 126.84 molecules/10^6 β-actin
CCND3 expression (3 hours): 195.17 molecules/10^6 β-actin
CCNE1 expression (3 hours): 51.36 molecules/10^6 β-actin
CCNG1 expression (3 hours): 2956.79 molecules/10^6 β-actin
CDC2 expression (3 hours): 2365.6 molecules/10^6 β-actin
CDC25C expression (3 hours): 394.83 molecules/10^6 β-actin
CDK7 expression (3 hours): 1068.25 molecules/10^6 β-actin
CDK8 expression (3 hours): 412.64 molecules/10^6 β-actin
CDKN1A expression (3 hours): 11.42 molecules/10^6 β-actin
CDKN1B expression (3 hours): 72.37 molecules/10^6 β-actin
CDKN2A expression (3 hours): 415.63 molecules/10^6 β-actin
CDKN2C expression (3 hours): 458.41 molecules/10^6 β-actin
CYP1A2 expression (3 hours): 59.45 molecules/10^6 β-actin
DAP expression (3 hours): 9037.57 molecules/10^6 β-actin
E2F4 expression (3 hours): 7540.97 molecules/10^6 β-actin
E2F5 expression (3 hours): 268.09 molecules/10^6 β-actin
JUN expression (3 hours): 1846.15 molecules/10^6 β-actin
MAD expression (3 hours): 496.75 molecules/10^6 β-actin
MAP3K14 expression (3 hours): 55.57 molecules/10^6 β-actin
MYC expression (3 hours): 974.69 molecules/10^6 β-actin
NFKB1 expression (3 hours): 2694.24 molecules/10^6 β-actin
PCNA expression (3 hours): 8574.58 molecules/10^6 β-actin
PTGS2 expression (3 hours): 82.69 molecules/10^6 β-actin
RB1 expression (3 hours): 7076.29 molecules/10^6 β-actin
RBL2 expression (3 hours): 1287.91 molecules/10^6 β-actin
TGFBR2 expression (3 hours): 1420.02 molecules/10^6 β-actin
TGIF expression (3 hours): 3112.84 molecules/10^6 β-actin
TNFAIP1 expression (3 hours): 4737.75 molecules/10^6 β-actin
TNFRSF1A expression (3 hours): 15.56 molecules/10^6 β-actin
TNFSF10 expression (3 hours): 82.86 molecules/10^6 β-actin
TP53 expression (3 hours): 567.53 molecules/10^6 β-actin
TRAF4 expression (3 hours): 69.06 molecules/10^6 β-actin
BCL2L1 expression (6 hours): 10428.62 molecules/10^6 β-actin
BCL2 expression (6 hours): 121.2 molecules/10^6 β-actin
CASP1 expression (6 hours): 80.87 molecules/10^6 β-actin
CCNA2 expression (6 hours): 348.88 molecules/10^6 β-actin
CCND3 expression (6 hours): 175.1 molecules/10^6 β-actin
CCNE1 expression (6 hours): 33.08 molecules/10^6 β-actin
CCNG1 expression (6 hours): 6161.69 molecules/10^6 β-actin
CDC2 expression (6 hours): 1650.84 molecules/10^6 β-actin
CDC25C expression (6 hours): 606.06 molecules/10^6 β-actin
CDK7 expression (6 hours): 778.75 molecules/10^6 β-actin
CDK8 expression (6 hours): 354.76 molecules/10^6 β-actin
CDKN1A expression (6 hours): 27.06 molecules/10^6 β-actin
CDKN1B expression (6 hours): 390.76 molecules/10^6 β-actin
CDKN2A expression (6 hours): 5611.87 molecules/10^6 β-actin
CDKN2C expression (6 hours): 781.31 molecules/10^6 β-actin
CYP1A2 expression (6 hours): 10 molecules/10^6 β-actin
DAP expression (6 hours): 12572.87 molecules/10^6 β-actin
E2F4 expression (6 hours): 1285.78 molecules/10^6 β-actin
E2F5 expression (6 hours): 243.27 molecules/10^6 β-actin
JUN expression (6 hours): 4168.04 molecules/10^6 β-actin
MAD expression (6 hours): 763.05 molecules/10^6 β-actin
MAP3K14 expression (6 hours): 68.69 molecules/10^6 β-actin
MYC expression (6 hours): 2650.11 molecules/10^6 β-actin
NFKB1 expression (6 hours): 3274.07 molecules/10^6 β-actin
PCNA expression (6 hours): 6433.1 molecules/10^6 β-actin
PTGS2 expression (6 hours): 157.43 molecules/10^6 β-actin
RB1 expression (6 hours): 5973.3 molecules/10^6 β-actin
RBL2 expression (6 hours): 2112.09 molecules/10^6 β-actin
TGFBR2 expression (6 hours): 2582.67 molecules/10^6 β-actin
TGIF expression (6 hours): 8002.87 molecules/10^6 β-actin
TNFAIP1 expression (6 hours): 7127.73 molecules/10^6 β-actin
TNFRSF1A expression (6 hours): 20.58 molecules/10^6 β-actin
TNFSF10 expression (6 hours): 532.07 molecules/10^6 β-actin
TP53 expression (6 hours): 1005.63 molecules/10^6 β-actin
TRAF4 expression (6 hours): 91.86 molecules/10^6 β-actin
BCL2L1 expression (12 hours): 23160.22 molecules/10^6 β-actin
BCL2 expression (12 hours): 122.24 molecules/10^6 β-actin
CASP1 expression (12 hours): 113.28 molecules/10^6 β-actin
CCNA2 expression (12 hours): 211.27 molecules/10^6 β-actin
CCND3 expression (12 hours): 137.33 molecules/10^6 β-actin
CCNE1 expression (12 hours): 48.10 molecules/10^6 β-actin
CCNG1 expression (12 hours): 9794.14 molecules/10^6 β-actin
CDC2 expression (12 hours): 1566.64 molecules/10^6 β-actin
CDC25C expression (12 hours): 779.22 molecules/10^6 β-actin
CDK7 expression (12 hours): 2551.62 molecules/10^6 β-actin
CDK8 expression (12 hours): 605.61 molecules/10^6 β-actin
CDKN1A expression (12 hours): 129.69 molecules/10^6 β-actin
CDKN1B expression (12 hours): 310.81 molecules/10^6 β-actin
CDKN2A expression (12 hours): 403.27 molecules/10^6 β-actin
CDKN2C expression (12 hours): 770.42 molecules/10^6 β-actin
CYP1A2 expression (12 hours): 69 molecules/10^6 β-actin
DAP expression (12 hours): 38087.74 molecules/10^6 β-actin
E2F4 expression (12 hours): 1673.69 molecules/10^6 β-actin
E2F5 expression (12 hours): 486.8 molecules/10^6 β-actin
JUN expression (12 hours): 5419.7 molecules/10^6 β-actin
MAD expression (12 hours): 7122.48 molecules/10^6 β-actin
MAP3K14 expression (12 hours): 158.89 molecules/10^6 β-actin
MYC expression (12 hours): 5205.65 molecules/10^6 β-actin
NFKB1 expression (12 hours): 6131.17 molecules/10^6 β-actin
PCNA expression (12 hours): 5756.09 molecules/10^6 β-actin
PTGS2 expression (12 hours): 2138.52 molecules/10^6 β-actin
RB1 expression (12 hours): 3301.83 molecules/10^6 β-actin
RBL2 expression (12 hours): 2698.44 molecules/10^6 β-actin
TGFBR2 expression (12 hours): 6799.19 molecules/10^6 β-actin
TGIF expression (12 hours): 13858.11 molecules/10^6 β-actin
TNFAIP1 expression (12 hours): 22572.81 molecules/10^6 β-actin
TNFRSF1A expression (12 hours): 107.17 molecules/10^6 β-actin
TNFSF10 expression (12 hours): 288.01 molecules/10^6 β-actin
TP53 expression (12 hours): 1663.37 molecules/10^6 β-actin
TRAF4 expression (12 hours): 222.84 molecules/10^6 β-actin
BCL2L1 expression (24 hours): 30504.02 molecules/10^6 β-actin
BCL2 expression (24 hours): 35.99 molecules/10^6 β-actin
CASP1 expression (24 hours): 142.49 molecules/10^6 β-actin
CCNA2 expression (24 hours): 241.1 molecules/10^6 β-actin
CCND3 expression (24 hours): 404.3 molecules/10^6 β-actin
CCNE1 expression (24 hours): 47.28 molecules/10^6 β-actin
CCNG1 expression (24 hours): 17499.15 molecules/10^6 β-actin
CDC2 expression (24 hours): 2054.95 molecules/10^6 β-actin
CDC25C expression (24 hours): 326.46 molecules/10^6 β-actin
CDK7 expression (24 hours): 9983.36 molecules/10^6 β-actin
CDK8 expression (24 hours): 1706.26 molecules/10^6 β-actin
CDKN1A expression (24 hours): 225.4 molecules/10^6 β-actin
CDKN1B expression (24 hours): 2092.37 molecules/10^6 β-actin
CDKN2A expression (24 hours): 163.48 molecules/10^6 β-actin
CDKN2C expression (24 hours): 904.8 molecules/10^6 β-actin
CYP1A2 expression (24 hours): 36.62 molecules/10^6 β-actin
DAP expression (24 hours): 56353.65 molecules/10^6 β-actin
E2F4 expression (24 hours): 1582.79 molecules/10^6 β-actin
E2F5 expression (24 hours): 1178.84 molecules/10^6 β-actin
JUN expression (24 hours): 8677.27 molecules/10^6 β-actin
MAD expression (24 hours): 13204.24 molecules/10^6 β-actin
MAP3K14 expression (24 hours): 143.47 molecules/10^6 β-actin
MYC expression (24 hours): 11117.04 molecules/10^6 β-actin
NFKB1 expression (24 hours): 16919.99 molecules/10^6 β-actin
PCNA expression (24 hours): 12795.59 molecules/10^6 β-actin
PTGS2 expression (24 hours): 19413.37 molecules/10^6 β-actin
RB1 expression (24 hours): 5935.72 molecules/10^6 β-actin
RBL2 expression (24 hours): 8604.92 molecules/10^6 β-actin
TGFBR2 expression (24 hours): 15367.23 molecules/10^6 β-actin
TGIF expression (24 hours): 15445.36 molecules/10^6 β-actin
TNFAIP1 expression (24 hours): 39858.96 molecules/10^6 β-actin
TNFRSF1A expression (24 hours): 26.61 molecules/10^6 β-actin
TNFSF10 expression (24 hours): 151.09 molecules/10^6 β-actin
TP53 expression (24 hours): 4238.06 molecules/10^6 β-actin
TRAF4 expression (24 hours): 242.44 molecules/10^6 β-actin
BCL2L1 expression (48 hours): 21299.99 molecules/10^6 β-actin
BCL2 expression (48 hours): 22.29 molecules/10^6 β-actin
CASP1 expression (48 hours): 184.55 molecules/10^6 β-actin
CCNA2 expression (48 hours): 137.61 molecules/10^6 β-actin
CCND3 expression (48 hours): 641.75 molecules/10^6 β-actin
CCNE1 expression (48 hours): 146.61 molecules/10^6 β-actin
CCNG1 expression (48 hours): 25388.52 molecules/10^6 β-actin
CDC2 expression (48 hours): 497.44 molecules/10^6 β-actin
CDC25C expression (48 hours): 68.37 molecules/10^6 β-actin
CDK7 expression (48 hours): 19212.16 molecules/10^6 β-actin
CDK8 expression (48 hours): 3052.4 molecules/10^6 β-actin
CDKN1A expression (48 hours): 288.56 molecules/10^6 β-actin
CDKN1B expression (48 hours): 414.6 molecules/10^6 β-actin
CDKN2A expression (48 hours): 3382.09 molecules/10^6 β-actin
CDKN2C expression (48 hours): 650.26 molecules/10^6 β-actin
CYP1A2 expression (48 hours): 37.48 molecules/10^6 β-actin
DAP expression (48 hours): 70325.95 molecules/10^6 β-actin
E2F4 expression (48 hours): 3738.46 molecules/10^6 β-actin
E2F5 expression (48 hours): 2144.23 molecules/10^6 β-actin
JUN expression (48 hours): 9510.55 molecules/10^6 β-actin
MAD expression (48 hours): 12999.27 molecules/10^6 β-actin
MAP3K14 expression (48 hours): 720.55 molecules/10^6 β-actin
MYC expression (48 hours): 8944.84 molecules/10^6 β-actin
NFKB1 expression (48 hours): 26524.38 molecules/10^6 β-actin
PCNA expression (48 hours): 6913.72 molecules/10^6 β-actin
PTGS2 expression (48 hours): 26516.88 molecules/10^6 β-actin
RB1 expression (48 hours): 6552.57 molecules/10^6 β-actin
RBL2 expression (48 hours): 11571.33 molecules/10^6 β-actin
TGFBR2 expression (48 hours): 5072 molecules/10^6 β-actin
TGIF expression (48 hours): 19849.69 molecules/10^6 β-actin
TNFAIP1 expression (48 hours): 49955.6 molecules/10^6 β-actin
TNFRSF1A expression (48 hours): 21.29 molecules/10^6 β-actin
TNFSF10 expression (48 hours): 79.65 molecules/10^6 β-actin
TP53 expression (48 hours): 2821 molecules/10^6 β-actin
TRAF4 expression (48 hours): 298.28 molecules/10^6 β-actin
